In patent publication US20230089899A1, “METHOD FOR NON-TARGETED CHARACTERISATION OF A SOLUTION COMPRISING A PLURALITY OF SOLUTES” (COMMISSARIAT A L'ENERGIE ATOMIQUE ET AUX ENERGIES …, priority 2021, published 2023):

Legend:
[1] = theoretical log D; cited from earlier work
[2] = physchem
Excerpt: The total quantity of moles of the solutes in the mixture (i.e. n0) is approximately 5×10^−4 moles. The pH of the mixture is approximately 7.4 (phosphate buffer: PBS).
A sequence of 3 rows of partitions—as illustrated in FIG. 2—is applied to the mixture by using hydrated n-octanol for the partition of the aqueous mixture and that of the aqueous phases issued from the partitions of rows 1 and 2 (i.e. the phases φ11, φ21 and φ23), and an aqueous solution comprising PBS buffer having a pH of 7 in distilled water for the partition of the organic phases issued from the partitions of rows 1 and 2 (i.e. the phases φ12, φ22 and φ24).
The concentration of each solute in the phases issued from the partitions of rows 1, 2 and 3 (i.e. the phases φ11 to φ38) is monitored by UV-visible spectroscopy but only with the goal of verifying the proper running of the experiment.

[3] = pH 7.4, experimental log D, log D of the solutes as verified experimentally, hydrated n-octanol/PBS buffer, UV-visible spectroscopy
[4] = pH 7.4, log D, in the experimental conditions used for this validation, n-octanol/aqueous phase, pH approximately 7.4 (PBS)

| Compound | log D^THEOR [1] | logD [2, 3] | logD [2, 4] |
| --- | --- | --- | --- |
| CC(C)(c1ccc(O)cc1)c1ccc(O)cc1 [BPA, bisphenol A] | 3.32 | – | – |
| c1ccc2[nH]cnc2c1 [Benzimidazole, benzimidazole] | – | 1.33 | 1.34 |
| CC(C)=O [acetone] | ~−0.24 | – | – |
| Cn1c(=O)c2[nH]cnc2n(C)c1=O [Theophylline, theophylline] | – | 0.01 | -0.02 |
